Values after ≈ are worked out from the molar mass of the structure shown. Like-named read-outs stand apart in the source and are kept apart here. Peptide text beside a SMILES is read from it.
Tests used:
[1] = target: T1, GST-MAGE-A11 MHD (Homo sapiens, UniProt P43364); assay: TR-FRET competition assay of PCF11 peptides against GST-MAGE-A11 MHD / FAM-PCF11_4; conditions: Fig. 1c, panel of eight PCF11 peptides; read-out: IC50, binding of PCF11 peptide to GST-MAGE-A11 by TR-FRET
T1 construct: GST-MAGE-A11 MHD (human MAGE-A11 MHD amino acid 218-429); made in house; host or cells: E. coli BL21(DE3)
T1 sequence (P43364 218-429): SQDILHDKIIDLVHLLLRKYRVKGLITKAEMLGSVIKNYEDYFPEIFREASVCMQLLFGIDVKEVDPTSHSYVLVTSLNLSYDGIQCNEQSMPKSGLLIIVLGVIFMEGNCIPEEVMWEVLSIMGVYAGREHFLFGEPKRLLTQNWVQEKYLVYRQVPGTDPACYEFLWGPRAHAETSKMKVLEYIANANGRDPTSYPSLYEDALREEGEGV
Description: The TR-FRET assay buffer with a formula of 50 mM Tris pH 7.5, 20 mM MgCl2, 0.1 mg/ml BSA and 1 mM DTT was freshly prepared before each experiment. All TR-FRET assays were performed in black 384-well plates with 20 µl/well assay volume in the TR-FRET assay buffer at room temperature (~25 °C). All peptides or compounds were solubilized in DMSO. To test the competitive activity of peptides or compounds against the interaction between GST-MAGE-A11 MHD and FAM-PCF11_4 peptide, 10 µl/well peptide or compound at specified concentration was dispensed into a black 384-well low volume plate, followed by 5 µl/well FAM-PCF11_4 (800 nM), 5 µl/well Tb-anti-GST (20 nM), and GST-MAGE-A11 MHD (20 nM). The assay components in each well was then mixed by shaking the plate on an IKA MTS 2/4 digital microtiter plate shaker (IKA Works; Wilmington, NC, USA) for 1 min. The plate was further centrifuged in an Eppendorf 5810 centrifuge with an A-4-62 swing-bucket rotor (Eppendorf AG, Hamburg, Germany) at 201 g for 30 s. The plate was then incubated for 90 min with a lid to avoid light exposure to the assay components. After incubation, the fluorescent emission signals at 520 nm and 490 nm channels of individual wells were measured with a PHERAstar FS plate reader (BMG Labtech; Durham, NC, USA) by using a 340 nm excitation filter, 100 µs delay time, and 200 µs integration time. The TR-FRET fluorescence emission ratio (TR-FRET signal) for each well was presented as 10,000 × 520 nm/490 nm, which was used directly for curve fitting, or further converted to %Inhibition based on the respective positive and negative controls. The graphic software GraphPad Prism 4.81 (GraphPad Software; La Jolla, CA, USA) was used to generate curves and derive IC50 values of tested peptides or compounds, if applicable.
TR-FRET inhibitory activity characterization of a panel of PCF11 peptides against the interaction between GST-MAGE-A11 MHD and FAM-PCF11_4 was performed as follows. In a 20-µl/well assay volume, dilutions of PCF11_1 to PCF11_8 peptides (concentrations ranged from 3.1 nM to 100 µM for peptides PCF11_4, PCF11_5, PCF11_6 and PCF11_8 in a 1-to-2 dilution pattern for 16 concentration levels, and ranged from 48.9 nM to 100 µM for peptides of PCF11_1, PCF11_2, PCF11_3, and PCF11_7 in a 1-to-2 dilution pattern for 12 concentration levels), 200 nM FAM-PCF11_4, 5 nM Tb-anti-GST and 5 nM GST-MAGE-A11 were mixed together and incubated for 90 min before the TR-FRET signal for each well was measured. The final DMSO concentration was 1.1% (v/v). […] The signal of each peptide-treated well (Signalpeptide) was normalized to the positive and negative controls to derive %inhibition of the peptide at a specific concentration with Eq. (1). Where applicable, the %Inhibition data were fit into a Sigmoidal dose response equation to derive IC50 values.1 %Inhibition=100%−100%×(Signalpeptide−SignalDMSOwithoutGST-MAGEA11)/SignalDMSO−SignalDMSOwithoutGST-MAGEA11.

[2] = Solubility assay (μSOL Evolution); assay type: physicochemical; conditions: 18 h at RT; for solubility at 18 h: citrate phosphate-buffered saline (isotonic) with 1% DMSO
Description: Solubility assays were carried out on a Biomek FX lab automation workstation (Beckman Coulter, Inc., Fullerton, CA) using μSOL Evolution software (pION Inc., Woburn, MA). The detailed method is described as follows. 10 µl of 10 mM compound stock (in DMSO) was added to 190 μl 1-propanol to make a reference stock plate. In total, 5 µl from this reference stock plate were mixed with 70 µl 1-propanol and 75 µl citrate phosphate-buffered saline (PBS; isotonic) to make the reference plate, and the UV spectrum (250–500 nm) of the reference plate was read. In total, 6 µl of 10 mM test compound stock was added to 594 µl buffer in a 96-well storage plate and mixed. The storage plate was sealed and incubated at RT for 18 h. The suspension was then filtered through a 96-well filter plate (pION Inc., Woburn, MA). In all, 75 µl of filtrate was mixed with 75 µl 1-propanol to make the sample plate, and the UV spectrum of the sample plate was read. Calculations were carried out with μSOL Evolution software based on the area under the curve (AUC) of the UV spectrum of the sample and reference plates. All compounds were tested in triplicate.

[3] = High throughput Caco-2 permeability; assay type: in vitro ADME; conditions: human, Caco-2, pH 7.4, 10 µmol/l, 2 h; for Papp A→B at 2 h, 10 µmol/l: apical to basolateral; for Papp B→A at 2 h, 10 µmol/l: basolateral to apical
Description: (§1) High throughput Caco-2 permeability was performed in the TranswellR 0.4 µm polycarbonate membrane 96-well system with modified methods. Caco-2 cells were maintained at 37 °C in a humidified incubator with an atmosphere of 5% CO2. The cells were cultured in 75 cm^2 flasks with Dulbecco’s Modified Eagle’s Medium (DMEM) containing 10% (v/v) FBS, 1% (v/v) non-essential amino acids (NEAA), 100 units/ml of penicillin, and 100 µg/ml of streptomycin. The Caco-2 cells were seeded onto inserts at a density of 2 × 10^4 cells/insert separately. The medium in the wells was exchanged each other day, and the trans epithelial electrical resistance (TEER) value was measured using an epithelial voltohm meter (Millipore, Billerica, Massachusetts). […] For transport experiments, each cultured monolayer on the 96-well plate was washed twice with a transport buffer (HBSS containing 25 mM HEPES, pH 7.4). The permeability assay was initiated by the addition of each compound solution (10 µmol/l) into inserts (apical side, A) or receivers (basolateral side, B). The Caco-2 cell monolayers were incubated for 2 h at 37 °C. Fractions were collected from receivers (if apical to basal permeability) or inserts (if basal to apical permeability), and concentrations were assessed by UPLC/MS (Waters; Milford, MA). All compounds were tested in triplicates. The A → B (or B → A) apparent permeability coefficients (Papp) of each compound were calculated using the equation, Papp = dQ/dt × 1/AC0, where dQ/dt equals the flux of a drug across the monolayer, A equals the total insert well surface area, and C0 is the initial concentration of substrate in the donor compartment. The efflux ratio was determined by dividing the Papp in the B-A direction by the Papp in the A-B direction.

[4] = target: T2, MAGE-A11:PCF11 interaction (GST-MAGE-A11 MHD and FAM-PCF11_4) (Homo sapiens, UniProt P43364); assay: TR-FRET dose response test of compounds for disruption of MAGE-A11:PCF11 binding
T2 construct: GST-MAGE-A11 MHD (human MAGE-A11 MHD amino acid 218-429); made in house; host or cells: E. coli BL21(DE3)
T2 sequence (P43364 218-429): T1 sequence (P43364 218-429)
Outline: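 Competition of compounds against binding of FAM-PCF11_4 peptide to GST-MAGE-A11 MHD, detected with Tb-anti-GST, in 50 mM Tris pH 7.5, 20 mM MgCl2, 0.1 mg/ml BSA, 1 mM DTT. 90 min at ~25 °C; 520/490 nm emission ratio (340 nm excitation) fitted for IC50.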

[5] = test system: Caco-2 cells; assay: High throughput Caco-2 permeability; assay type: in vitro ADME; conditions: 10 µmol/l, 2 h; for Papp A→B: apical to basolateral; for Papp B→A: basolateral to apical
Description: as §1

[6] = Supplementary Data 4, read-out: TR-FRET, IC50
[7] = Dose response TR-FRET screening of nine scaffold groups against MAGE-A11:PCF11, read-out: consensus IC50

| SMILES | IC50 [1] [µM] | IC50 [4, 6] [µM] | Solubility [2] [µM] | Papp A→B [5] [×10⁻⁶ cm/s] | Papp B→A [5] [×10⁻⁶ cm/s] | other results |
| --- | --- | --- | --- | --- | --- | --- |
| CC(C)C[C@H](NC(=O)[C@H](CC(C)C)NC(=O)[C@H](CCC(=O)O)NC(=O)[C@H](CCCNC(=N)N)NC(=O)[C@H](CCCCN)NC(=O)[C@H](CO)NC(=O)[C@H](C)NC(=O)[C@H](CC(C)C)NC(=O)[C@@H](NC(=O)[C@H](CC(C)C)NC(=O)[C@H](CCC(=O)O)NC(=O)[C@H](CCCCN)NC(=O)[C@@H]1CCCN1)[C@@H](C)O)C(=O)N[C@@H](CCC(N)=O)C(=O)N[C@@H](CCCCN)C(=O)O [PCF11_1] (H-PKELTLASKRELLQK-OH; N-terminus assumed) | > 50 | – | – | – | – | – |
| CC[C@H](C)[C@H](NC(=O)[C@H](CCC(=O)O)NC(=O)CNC(=O)[C@H](CO)NC(=O)[C@H](C)NC(=O)[C@H](CC(C)C)NC(=O)[C@H](CCCNC(=N)N)NC(=O)[C@H](CCC(=O)O)NC(=O)[C@H](CO)NC(=O)[C@@H](NC(=O)[C@H](CCCCN)NC(=O)[C@H](CCC(N)=O)NC(=O)[C@H](CC(C)C)NC(=O)[C@@H](N)CC(C)C)[C@@H](C)O)C(=O)N[C@H](C(=O)O)[C@@H](C)O [PCF11_2] (H-LLQKTSERLASGEIT-OH; N-terminus assumed) | > 50 | – | – | – | – | – |
| CC[C@H](C)[C@H](NC(=O)[C@H](CCC(N)=O)NC(=O)[C@H](Cc1c[nH]cn1)NC(=O)[C@@H](NC(=O)[C@@H](NC(=O)[C@@H](NC(=O)[C@H](CC(C)C)NC(=O)[C@H](Cc1ccccc1)NC(=O)[C@H](CC(=O)O)NC(=O)[C@H](CC(=O)O)NC(=O)[C@H](CCC(N)=O)NC(=O)[C@@H](NC(=O)[C@@H](NC(=O)[C@H](CCC(=O)O)NC(=O)CN)[C@@H](C)CC)[C@@H](C)O)C(C)C)C(C)C)C(C)C)C(=O)O [PCF11_3] (H-GEITQDDFLVVVHQI-OH; N-terminus assumed) | > 50 | – | – | – | – | – |
| FC(F)(F)c1cc(-c2ccc3c(NCCCNCc4ccco4)ccnc3c2)cc(C(F)(F)F)c1 [SJ000311270-01, FC(F)(F)c1cc(cc(c1)C(F)(F)F)c2ccc3c(NCCCNCc4occc4)ccnc3c2] | – | 0.58 | – | – | – | solubility at 18 h [2]: 61.1 µM (≈ 30.1 µg/mL); Papp A→B at 2 h, 10 µmol/l [3]: 0.326 ×10⁻⁶ cm/s; Papp B→A at 2 h, 10 µmol/l [3]: 0.079 ×10⁻⁶ cm/s |
| CC(C)(C)c1ccc(-c2ccc3c(NCCCNCc4ccco4)ccnc3c2)cc1 [SJ000311286-01, CC(C)(C)c1ccc(cc1)c2ccc3c(NCCCNCc4occc4)ccnc3c2] | – | 1.16 | – | – | – | solubility at 18 h [2]: 56.2 µM (≈ 23.2 µg/mL); Papp A→B at 2 h, 10 µmol/l [3]: 0.578 ×10⁻⁶ cm/s; Papp B→A at 2 h, 10 µmol/l [3]: 0.12 ×10⁻⁶ cm/s |
| FC(F)(F)c1ccc2c(NCCCNCc3ccc4c(c3)OCO4)ccnc2c1 [SJ000361106-02] | – | – | 128.74 (≈ 51.9 µg/mL) | 47 | 40 | – |
| FC(F)(F)c1ccc2c(NCCCNCc3ccco3)ccnc2c1 [SJ000361113-02] | – | > 70 | 119.10 (≈ 41.6 µg/mL) | 50.2 | 40.1 | – |
| Clc1ccc2c(NCCCNCc3ccc4[nH]ccc4c3)ccnc2c1 [SJ000520909-03] | – | 0.24 | 59.80 (≈ 21.8 µg/mL) | 19.6 | 21.3 | – |
| Cc1cc(C)c(C2Nc3ccccc3C(=O)N2CCCN2CCOCC2)cc1C (stereo not drawn) [SJ000803761-1] | – | – | – | – | – | IC50 [4, 7]: 62.3 µM |
| CSc1ccc(C2Nc3ccccc3C(=O)N2CCCN2CCOCC2)cc1 (stereo not drawn) [SJ000803762-1] | – | – | – | – | – | IC50 [4, 7]: > 70 µM |
